Source: patent publication US20160158200A1, “Combinations of Hepatitis C Virus Inhibitors” (priority 2013, published 2016)

What follows are compounds tested on HCV genotype-1a variant with glutamine 30 changed to glutamate in the NS5A protein. Details: test compound titrated with BMS-790052 fixed at 200 nM; genotype 1a Q30E replicon.
Type: cell-based
Procedure, shortened: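 Synergy was assessed by combining several fixed amounts of an NS5A-targeting compound with a titration of the second compound of interest.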

Structure (SMILES)	Fold-Synergistic 1a (Q30E) [fold]
COC(c1ccccc1)C1(C(=O)N[C@H](c2nc(-c3ccc(-c4ccc(-c5c[nH]c([C@@H](NC(=O)C6(C(OC)c7ccccc7)CC6)C(C)(C)C)n5)cc4)cc3)c[nH]2)C(C)(C)C)CC1 (single isomer, unassigned) [Compound N-137C]	>100
CC(C)(C)OC(=O)N1CC(F)(F)CC1(C)C(=O)N[C@H](c1nc(-c2ccc(-c3ccc(-c4c[nH]c([C@@H](NC(=O)C5(C)CC(F)(F)CN5C(=O)OC(C)(C)C)C(C)(C)C)n4)cc3)cc2)c[nH]1)C(C)(C)C (single isomer, unassigned) [Compound W-78]	>100
CC(C)[C@H](NC(=O)c1ccc(F)cc1Cl)c1ncc(-c2ccc(-c3ccc(-c4cnc([C@@H](NC(=O)c5ccc(F)cc5Cl)C(C)C)[nH]4)cc3)cc2)[nH]1 [Compound S-88]	>100
O=C(C(=O)N1C(c2nc(-c3ccc(-c4ccc(-c5c[nH]c(C6CC7C[C@@H]7N6C(=O)C(=O)N6CCC(F)(F)CC6)n5)cc4)cc3)c[nH]2)C[C@@H]2CC21)N1CCC(F)(F)CC1 (stereo partly shown) [Compound W-243]	>100
CC(C)COC(=O)N[C@H](c1ncc(-c2ccc(-c3ccc(-c4cnc([C@@H](NC(=O)OCC(C)C)C(C)C)[nH]4)cc3)cc2)[nH]1)C(C)C [Compound S-211]	>100
COC(=O)N[C@H](Cc1ccccc1)C(=O)N[C@H](c1ncc(-c2ccc(-c3ccc(-c4cnc([C@@H](NC(=O)[C@@H](Cc5ccccc5)NC(=O)OC)C(C)C)[nH]4)cc3)cc2)[nH]1)C(C)C [Compound P-106]	>100
CC(C)(C)CCC(=O)N[C@H](c1nc(-c2ccc(-c3ccc(-c4c[nH]c([C@@H](NC(=O)CCC(C)(C)C)C(C)(C)C)n4)cc3)cc2)c[nH]1)C(C)(C)C [Compound N-58]	>100
CC[C@H](C(=O)N[C@H](c1ncc(-c2ccc(-c3ccc(-c4cnc([C@@H](NC(=O)[C@@H](CC)c5ccccc5)C(C)C)[nH]4)cc3)cc2)[nH]1)C(C)C)c1ccccc1 [Compound P-61]	>100
CC(C)[C@H](NC(=O)C1CC(F)(F)C1)c1ncc(-c2ccc(-c3ccc(-c4cnc([C@@H](NC(=O)C5CC(F)(F)C5)C(C)C)[nH]4)cc3)cc2)[nH]1 [Compound P-83]	>100
CC1(C)CCN(C(=O)C(=O)c2ccccc2)C1c1nc(-c2ccc(-c3ccc(-c4c[nH]c(C5N(C(=O)C(=O)c6ccccc6)CCC5(C)C)n4)cc3)cc2)c[nH]1 (stereo not shown) [Compound W-224]	>10
CC1(C(=O)NC(c2nc(-c3ccc(-c4ccc(-c5c[nH]c(C(NC(=O)C6(C)CCCC(F)(F)CO6)C(C)(C)C)n5)cc4)cc3)c[nH]2)C(C)(C)C)CCCC(F)(F)CO1 (stereo not shown) [Compound Y-92]	>100
CC(C)CC(=O)N[C@@H](c1nc(-c2ccc(-c3ccc(-c4c[nH]c([C@H](NC(=O)CC(C)C)C(C)(C)C)n4)cc3)cc2)c[nH]1)C(C)(C)C [Compound N-67]	>10
COC(=O)N(C)C1(C(=O)N[C@H](c2nc(-c3ccc(-c4ccc(-c5c[nH]c([C@@H](NC(=O)C6(N(C)C(=O)OC)CC6)C(C)(C)C)n5)cc4)cc3)c[nH]2)C(C)(C)C)CC1.O=C(O)C(F)(F)F.O=C(O)C(F)(F)F [Compound L-19]	>100
COC1(C(=O)N[C@H](c2ncc(-c3ccc(-c4ccc(-c5cnc([C@@H](NC(=O)C6(OC)CCC(F)(F)CC6)C6(C)CC6)[nH]5)cc4)cc3)[nH]2)C2(C)CC2)CCC(F)(F)CC1 [Compound P-132]	>100
COC(C)(C)C(=O)N[C@H](c1nc(-c2ccc(-c3ccc(-c4c[nH]c([C@@H](NC(=O)C(C)(C)OC)C(C)C)n4)cc3F)cc2)c[nH]1)C(C)C.O=C(O)C(F)(F)F [Compound N-96]	>100
CC(C)(C)[C@H](NC(=O)C(C)(C)n1cnnn1)c1nc(-c2ccc(-c3ccc(-c4c[nH]c([C@@H](NC(=O)C(C)(C)n5cnnn5)C(C)(C)C)n4)cc3)cc2)c[nH]1 [Compound S-277]	>100
CC(C)(NCC(F)(F)F)C(=O)NC(c1nc(-c2ccc(-c3ccc(-c4c[nH]c(C(NC(=O)C(C)(C)NCC(F)(F)F)C(C)(C)C)n4)cc3)cc2)c[nH]1)C(C)(C)C [Compound L-50]	>100
CC(C)[C@H](NC(=O)c1c(F)cc(F)cc1F)c1ncc(-c2ccc(-c3ccc(-c4cnc([C@@H](NC(=O)c5c(F)cc(F)cc5F)C(C)C)[nH]4)cc3)cc2)[nH]1 [Compound S-92]	>100
CC(C)(C(=O)N[C@H](c1nc(-c2ccc(-c3ccc(-c4c[nH]c([C@@H](NC(=O)C(C)(C)C(O)c5ccccc5F)C(C)(C)C)n4)cc3)cc2)c[nH]1)C(C)(C)C)C(O)c1ccccc1F (single isomer, unassigned) [Compound N-124A]	>100
CC(CO)(OCCF)C(=O)N[C@H](c1nc(-c2ccc(-c3ccc(-c4c[nH]c([C@@H](NC(=O)C(C)(CO)OCCF)C(C)(C)C)n4)cc3)cc2)c[nH]1)C(C)(C)C (single isomer, unassigned) [Compound W-271]	>100

Structure (SMILES)	Fold-Synergistic 1a (Q30E) [fold]
Cc1cc(-c2ccc(-c3c[nH]c([C@@H](NC(=O)C4CC(F)(F)C4)C(C)C)n3)cc2)ccc1-c1c[nH]c([C@@H](NC(=O)C2CC(F)(F)C2)C(C)C)n1.O=C(O)C(F)(F)F [Compound N-78]	>100
COc1ccc(C(=O)N[C@H](c2ncc(-c3ccc(-c4ccc(-c5cnc([C@@H](NC(=O)c6ccc(OC)cc6)C(C)C)[nH]5)cc4)cc3)[nH]2)C(C)C)cc1 [Compound S-28]	>100
CC(C)(C(=O)N[C@H](c1nc(-c2ccc(-c3ccc(-c4c[nH]c([C@@H](NC(=O)C(C)(C)C(O)c5ccccc5F)C(C)(C)C)n4)cc3)cc2)c[nH]1)C(C)(C)C)C(O)c1ccccc1F (single isomer, unassigned) [Compound N-124B]	>100
CC(C)(C)[C@H](NC(=O)Cc1ccccc1F)c1nc(-c2ccc(-c3ccc(-c4c[nH]c([C@@H](NC(=O)Cc5ccccc5F)C(C)(C)C)n4)cc3)cc2)c[nH]1 [Compound N-48]	>100
C[C@@H]1CCN(C(=O)C(=O)N(C2CC2)C2CC2)C1c1nc(-c2ccc(-c3ccc(-c4c[nH]c(C5[C@H](C)CCN5C(=O)C(=O)N(C5CC5)C5CC5)n4)cc3)cc2)c[nH]1 (stereo partly shown) [Compound W-241]	>10
CCOC(C)(C)C(=O)N[C@H](c1nc(-c2ccc(-c3ccc(-c4c[nH]c([C@@H](NC(=O)C(C)(C)OCC)C(C)(C)C)n4)cc3)cc2)c[nH]1)C(C)(C)C [Compound P-26]	>100
CC(C)[C@H](NC(=O)Cc1cccs1)c1ncc(-c2ccc(-c3ccc(-c4cnc([C@@H](NC(=O)Cc5cccs5)C(C)C)[nH]4)cc3)cc2)[nH]1 [Compound P-78]	>100
CC(C)(C)[C@H](NC(=O)[C@@H]1C[C@@H]2CC(F)(F)C[C@@H]2C1)c1nc(-c2ccc(-c3ccc(-c4c[nH]c([C@@H](NC(=O)[C@@H]5C[C@@H]6CC(F)(F)C[C@@H]6C5)C(C)(C)C)n4)cc3)cc2)c[nH]1 [Compound P-43]	>100
CC(C)[C@H](NC(=O)Cc1cccc2ccccc12)c1ncc(-c2ccc(-c3ccc(-c4cnc([C@@H](NC(=O)Cc5cccc6ccccc56)C(C)C)[nH]4)cc3)cc2)[nH]1 [Compound S-9]	>10
CC(C)(C)[C@H](NC(=O)C1CC2(C1)CC(F)(F)C2)c1nc(-c2ccc(-c3ccc(-c4c[nH]c([C@@H](NC(=O)C5CC6(C5)CC(F)(F)C6)C(C)(C)C)n4)cc3)cc2)c[nH]1 [Compound P-46]	>100
CC(C)(C)OC(=O)NC1CCCCC1C(=O)N[C@H](c1nc(-c2ccc(-c3ccc(-c4c[nH]c([C@@H](NC(=O)C5CCCCC5NC(=O)OC(C)(C)C)C(C)(C)C)n4)cc3)cc2)c[nH]1)C(C)(C)C (single isomer, unassigned) [Compound W-23B]	>100
CC(C)[C@H](NC(=O)[C@@]1(C)CCC(F)(F)CO1)c1nc(-c2ccc(-c3ccc(-c4c[nH]c([C@@H](NC(=O)[C@@]5(C)CCC(F)(F)CO5)C(C)C)n4)c(F)c3)cc2)c[nH]1 [Compound N-132]	>100
CC(CO)(OCCF)C(=O)N[C@H](c1nc(-c2ccc(-c3ccc(-c4c[nH]c([C@@H](NC(=O)C(C)(CO)OCCF)C(C)(C)C)n4)cc3)cc2)c[nH]1)C(C)(C)C (single isomer, unassigned) [Compound W-270]	>100
CC(C)(C)[C@H](NC(=O)c1ccccc1OC(F)F)c1nc(-c2ccc(-c3ccc(-c4c[nH]c([C@@H](NC(=O)c5ccccc5OC(F)F)C(C)(C)C)n4)cc3)cc2)c[nH]1 [Compound P-25]	>100
COC(C)(C)C(=O)N[C@H](c1nc(-c2ccc(-c3ccc(-c4c[nH]c([C@@H](NC(=O)C(C)(C)OC)C(C)(C)C)n4)cc3)cc2)c[nH]1)C(C)(C)C [Compound P-13]	>100
CC(C)(C)C(NC(=O)C1CCCO1)c1nc(-c2ccc(-c3ccc(-c4c[nH]c(C(NC(=O)C5CCCO5)C(C)(C)C)n4)cc3)cc2)c[nH]1 [Compound L-64]	>100
CC(C)(CF)C(=O)N[C@H](c1nc(-c2ccc(-c3ccc(-c4c[nH]c([C@@H](NC(=O)C(C)(C)CF)C(C)(C)C)n4)cc3)cc2)c[nH]1)C(C)(C)C [Compound P-19]	>100
CO[C@H](C(=O)N[C@H](c1nc(-c2ccc(-c3ccc(-c4c[nH]c([C@@H](NC(=O)[C@@H](OC)c5ccccc5)C(C)(C)C)n4)cc3)cc2)c[nH]1)C(C)(C)C)c1ccccc1 [Compound P-18]	>100
CC(C)(C)[C@H](NC(=O)C(C)(O)C1(C)CC1)c1nc(-c2ccc(-c3ccc(-c4c[nH]c([C@@H](NC(=O)C(C)(O)C5(C)CC5)C(C)(C)C)n4)cc3)cc2)c[nH]1 (single isomer, unassigned) [Compound L-93a]	>100
CC1([C@H](NC(=O)C2(CO)CC(F)(F)C2)c2nc(-c3ccc(-c4ccc(-c5c[nH]c([C@@H](NC(=O)C6(CO)CC(F)(F)C6)C6(C)CC6)n5)cc4)cc3)c[nH]2)CC1 [Compound N-155]	>100
